Source: patent publication US20240115682A1, “METHODS OF TREATING CANCER USING HETEROARYL-BIPHENYL AMIDE DERIVATIVES” (CHEMOCENTRYX, INC., priority 2020, published 2024)
“Also recorded” adds a separate entry of the source. Where two headings read alike, the source gives them in different places.

How the values were obtained:
[1] = target: human PD-L1 / human PD-1 interaction (Homo sapiens (Human), UniProt Q9NZQ7); experiment: PD-1/PD-L1 binding ELISA
Procedure: 96 Well plates were coated with 1 μg/mL of human PD-L1 (obtained from R&D) in PBS overnight at 4° C. The wells were then blocked with 2% BSA in PBS (W/V) with 0.05% TWEEN-20 for 1 hour at 37° C. The plates were washed 3 times with PBS/0.05% TWEEN-20 and the compounds were serial diluted (1:5) in dilution medium and added to the ELISA plates. Human PD-1 and biotin 0.3 μg/mL (ACRO Biosystems) were added and incubated for 1 hour at 37° C. then washed 3 times with PBS/0.05% TWEEN-20. A second block was performed with 2% BSA in PBS (W/V)/0.05% TWEEN-20 for 10 min at 37° C. and the plates were washed 3 times with PBS/0.05% TWEEN-20. Streptavidin-HRP was added for 1 hour at 37° C. then the plates were washed 3 times with PBS/0.05% TWEEN-20. TMB substrate was added and reacted for 20 min at 37° C. A stop solution (2 N aqueous H2SO4) was added. The absorbance was read at 450 nm using a micro-plate spectrophotometer. The results are shown in Table 1: IC50 values are provided as follows: from 1000 to 10,000 nM (+); from 10 up to 1000 nM (++); less than 10 nM (+++).
ELISA: This assay was performed substantially as described in Biological Example 1.

[2] = system: PD-1/PD-L1 interaction; experiment: PD-1/PD-L1 Blockade Cell-based Assay (NFAT luciferase reporter, CHO PD-L1 + Jurkat PD-1); details: Homo sapiens; CHO PD-L1 / Jurkat PD-1 co-culture; read-out: average EC50, NFAT promoter-driven luciferase expression
[3] = system: human T cells; experiment: Mixed Lymphocyte Reaction (MLR), IFNgamma release; type: cell-based; details: for EC50: Homo sapiens, T-cell, T cells from different donors, read-out: EC50, release of INFgamma from human T cells
Description: PBMCs Isolation: Peripheral blood mononuclear cells (PBMCs) were isolated from buffy coat from LRS chambers (leukoreduction systems) from healthy donors by density gradient centrifugation using StemCell SepMate™-50 tubes ([…] Technologies, Vancouver, CA) containing Ficoll-Paque Plus (Sigma Aldrich Inc., St. Louis, MO).
Generation of monocyte derived dendritic cells: CD14^+ monocytes were isolated from PBMCs by magnetic separation using human CD14^+ MicroBeads (MACS Miltenyi Biotech, Bergisch Gladbach, Germany) and an autoMACS® Pro Separator. Isolated monocytes were plated at a concentration of 1×10^6 cells/ml and differentiated to dendritic cells by adding GM-CSF (100 ng/ml) and IL-4 (50 ng/ml) for 6 days. Fresh media with cytokine supplement were added on day 0 and day 2. Mature dendritic cells were induced on day 6 by addition of IL-6 (2000 IU/ml), IL-1B (400 IU/ml) (Peprotech, Inc. Rocky Hill, NJ), TNFalpha (2000 IU/ml) and PGE2 (2 ug/ml) (Sigma Aldrich, Inc.) and cultured for 24 hours.
Preparation of human effector cells: CD4^+ T-Cells were isolated from PBMCs by magnetic separation using human CD4^+ MicroBeads (MACS Miltenyi Biotech) and an autoMACS® Pro Separator.
Mixed Lymphocyte Reaction (MLR): DC and CD4^+T-Cells from unmatched donors were cultured together in a ratio of 1:10 for 5 days in 96 well-flat bottom plates (Thermo Scientific). Test compounds were added as indicated at starting concentration of 1 μM with 1:4 dilutions with DMSO. PD-L1 antibody (AZ Medi4736 analog) and isotype control (Human IgG1, Kappa Isotype Control) (CrownBio, Beijing) were used as positive and negative control respectively. Supernatants were harvested after 5 days of incubation and detection of human IFNg was performed by ELISA using Human IFN-gamma DuoSet ELISA (R&D Systems, Minneapolis) as per manufacturer's instructions.

[4] = system: A375-eGFP cells; experiment: In Vitro Immunotherapy Potency Assay (PBMC-mediated tumor cell killing); type: cell-based; details: in the presence of pre-stimulated primary human PBMCs
Procedure: In Vitro Immunotherapy Potency Assay: A375-eGFP-Puro Cells (ATCC) were grown in complete medium (DMEM+10% FBS+P/S 1×) containing lug/ml of puromycin. Human peripheral blood mononuclear cells (hPBMCs) were isolated from buffy coat from LRS chambers (leukoreduction systems) from healthy donors by density gradient centrifugation using StemCell SepMate™-50 tubes ([…] Technologies, Vancouver, CA) containing Ficoll-Paque Plus (Sigma Aldrich Inc., St. Louis, MO). […] Cells were washed twice and re-suspended into regular growth media. 3×10^4 A375-eGFP-Puro cells were seeded in 96-well clear bottom black TC treated plates in a final volume of 100 ul (Corning). Test compounds or anti-human PD-L1 antibody (AZ Medi4736 analog, CrownBio, Beijing) were added to the wells at different concentrations. SEB stimulated hPBMCs were added to the wells at a ratio of E:T (Effector cell: Target Cell) of […]. Mixed cells were incubated for 96 to 120 hours at 37° C. in 5% CO2. Medium was carefully aspired and 100 μl of PBS 1× was added to each well. Fluorescence from A375-eGFP cells was detected using FlexStation 3 plate reader.

[5] = target: T1, PD-L1 (Homo sapiens (Human), UniProt Q9NZQ7); experiment: PathHunter PD-L1 Dimerization Assay in U2OS cells; type: cell-based
Procedure: Dimerization Assay PD-L1 protein dimerization was assessed in vitro by chemiluminescent detection using PathHunter® Dimerization assay (DiscoverX, Fremont, CA). The Assay was performed following vendor's protocol. 2×10^4 U2OS cells were plated in 96-well white bottom TC treated plates (Costar, San Jose, CA) in a final volume of 100 ul. ChemoCentryx compounds or anti-human PD-L1 antibody (AZ Medi4736 analog, CrownBio, Beijing) were added to experimental cells at different concentrations and incubated for 16 hours at 37° C. in 5% CO2. 110 ul of PathHunter Flash detection reagent (DiscoverX) was added to each well and incubated for 1 hour at room temperature in the dark. Chemiluminescent signal was measured on a FlexStation 3 plate reader (Molecular Devices, San Jose, CA) at a speed of 100 ms/well.
Target sequence in this assay (Q9NZQ7 19-290): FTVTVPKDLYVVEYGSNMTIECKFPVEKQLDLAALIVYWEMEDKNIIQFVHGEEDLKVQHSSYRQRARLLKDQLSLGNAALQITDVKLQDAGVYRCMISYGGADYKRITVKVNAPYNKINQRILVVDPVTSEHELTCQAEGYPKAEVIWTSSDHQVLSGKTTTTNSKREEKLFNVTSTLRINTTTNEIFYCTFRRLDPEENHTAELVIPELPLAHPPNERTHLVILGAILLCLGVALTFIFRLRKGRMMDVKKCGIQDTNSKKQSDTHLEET
Target sequence in this assay (Q9NZQ7 19-290): as above

[6] = target: T1, PD-L1; experiment: PD-L1 Internalization Assay (surface PD-L1 by flow cytometry); type: cell-based; details: 37° C.
Procedure: Internalization Assay: MC38-hPD-L1 cells (GenOway S.A., France) and RKO cells (ATCC) growing at 37° C. in 5% CO2 were detached, resuspended in cold FACS buffer (PBS 1× with 10% FBS and 0.1% azide) and added to 96-well assay plates (V-Bottom) (Axygen, Union City, CA) at a concentration of 10×10^4 cells/well. ChemoCentryx compounds or anti-human PD-L1 antibody (AZ Medi4736 analog) were added to the wells at different concentrations and incubated for 2 hours at 37° C. or 4° C. Cells were washed twice with iced cold FACS buffer and stained with recombinant rabbit monoclonal anti human PD-L1 antibody ([28-8] (PE) (ab209962), Abcam) or recombinant rabbit monoclonal IgG Isotype control ([EPR25A] (PE) (ab209478), Abcam) for 30 minutes on ice. Cells were washed twice with FACS buffer before performing FACS analysis. Data were analyzed using FlowJo software.
Target sequence in this assay (Q9NZQ7 19-290): as above

[7] = system: MC38-hPD-L1 tumor; experiment: MC38-hPD-L1 tumor model in C57BL/6 mice; type: in vivo, mouse; details: for animals that achieved complete regression: 10 mice in each group, compounds 30 mg/kg orally b.i.d., antibody i.p. twice a week
Procedure: Generation and culture of MC38-hPD-L1 cells: The compounds are only known to cross-react with human PD-L1, therefore a syngeneic tumor model with […] MC-38 colon tumor cells expressing human PD-L1 (MC38-hPD-L1 tumor model) was used. The MC38-hPD-L1 cells were generated by GenOway. Endogenous mouse PD-L1 was first knocked out in MC38 cells using CRISPR technology, then human PDL1 was stably transfected in these mouse PD-L1 Knock-out MC38 cells. The MC38-hPD-L1 cells were cultured under standard conditions for MC38 cells (DMEM with 10% fetal bovine serum and Penicillin/Streptomycin) with G418 for maintaining transgene expression. 2 days prior to inoculation of these cells to mice, cells were trysinized and seeded without antibiotics.
(§1) In Vivo Studies: 8-week-old, female C57BL/6 mice were injected s.c. with 5×10^5 MC38-hPD-L1 cells in the right flank. 9 days after tumor inoculation mice were randomly assigned to treatment groups based on tumor size. Only mice that developed measurable tumors were enrolled in the studies. Anti-PD-L1 (Durvalumab) or isotype control was given i.p. twice a week at 100 ug per mouse per dose for 2 weeks. Compound 2.001 and Compound 2.002 suspended in 1% HPMC was dosed p.o. daily at indicated doses, dosing volume 100 μl per mouse. The vehicle, 1% HPMC, was dosed at the same volume with the same frequency for control animals.
Tumor volume was measured three times per week using a digital caliper and calculated as (width^2*length/2). Mice were sacrificed when tumor volumes reached 2,000 mm^3 in accordance with IACUC guidelines.
Tumor width (W) and length (L) were measured with calipers 3 times a week and the tumor volume was calculated using the formula V=(W (2)×L)/2. When tumors reach 2000 mm^3 mice were sacrificed and tumor excised for further analysis.

[8] = Plasma compound concentration in MC38-hPD-L1 tumor model; type: in vivo, mouse; details: trough after 3 days of dosing, oral
Procedure: as §1

[9] = target: T1, PD-L1; experiment: PD-L1 occupancy on cells isolated from MC38-hPD-L1 tumors (flow cytometry); type: in vivo, mouse; details: cells from treated MC38-hPD-L1 tumors
Procedure: (§2) Cellular phenotyping of tumor infiltrates: Excised tumors were finely chopped with a blade and meshed through 200 um sieve. Cells were then filtered through a […] sieve. Cells were washed and resuspended in FACS buffer (PBS 1× with 10% FBS and 0.1% azide).
(§3) Antibodies for flow cytometry were obtained from BioLegend (San Diego, CA). Flow cytometer panel included CD45 in FITC, PD-L1 in PE, CD8 in APC, CD4 in APC-Cy7. Flow cytometry data were acquired with a FACSCanto II (BD Biosciences, San Jose, CA) cytometer and analyzed using FlowJO v10.2 (FlowJo, Ashland, OR)
To examine the extent Compound 2.001 occupys PD-L1 on tumor cells, we utilized another PD-L1 detection antibody to stain the cells isolated from these tumors.
Target sequence in this assay (Q9NZQ7 19-290): as above

[10] = system: tumor infiltrating CD8+ and CD4+ T cells; experiment: Cellular phenotyping of tumor infiltrates in MC38-hPD-L1 tumor model; type: in vivo, mouse; details: MC38-hPD-L1 tumors
Procedure: as §2, §3

[11] = PD-1/PD-L1 ELISA, class symbols, read-out: ELISA IC50
[12] = average from multiple assays, read-out: average IC50, inhibition of direct interaction of PD-L1 to PD-1

Sequence of human PD-L1 / human PD-1 interaction (Q9NZQ7 19-239): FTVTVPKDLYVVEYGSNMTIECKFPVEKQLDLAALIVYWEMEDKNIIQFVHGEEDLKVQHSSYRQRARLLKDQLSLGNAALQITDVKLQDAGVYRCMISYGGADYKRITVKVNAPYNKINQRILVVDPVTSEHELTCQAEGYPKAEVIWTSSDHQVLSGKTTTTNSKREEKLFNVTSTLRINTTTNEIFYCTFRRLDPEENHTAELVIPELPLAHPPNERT

| IC50 [1, 11] | IC50 [1, 12] | EC50 [2] | EC50 [3] | plasma compound concentrations [8] | PD-L1 occupancy on tumor cells [9] | PD-L1 dimerization signal ([5]; listed as anti-PD-L1 antibody) | Molecule | release of INFgamma from human T cells [3] | killing of GFP labeled human cancer cell line A375 [4] | PD-L1 dimerization signal [5] | surface PD-L1 levels [6] | mice with complete eradication of the tumors ([7]; 30 mg/kg (b.i.d.), orally) | tumor growth ([7]; dosed orally, several doses) | animals that achieved complete regression [7] | tumor infiltrating CD8+ and CD4+ T cells [10] |
| --- | --- | --- | --- | --- | --- | --- | --- | --- | --- | --- | --- | --- | --- | --- | --- |
| < 10 nM | 0.4 nM | 46 nM | < 100 nM | dose-dependency |  |  | COc1nc(-c2cccc(-c3cccc(NC(=O)c4cn(C)c(=O)n(C)c4=O)c3Cl)c2Cl)ccc1CNC[C@@H]1CCC(=O)N1 [Compound 2.002] | dose dependently increase | promote killing | strongly induced the dimerization signal; also recorded: induce PD-L1 dimerization | profoundly reduces surface PD-L1 levels; also recorded: lower the surface PD-L1 levels | Eight of the ten | dose dependently suppresses tumor growth; also recorded: tumor growth suppression in a dose-dependent manner |  |  |
| < 10 nM | 0.3 nM | 52 nM | < 100 nM |  | near complete PD-L1 occupancy |  | COc1nc(-c2cccc(-c3cccc(NC(=O)c4cn(C)c(=O)n(C)c4=O)c3C)c2Cl)ccc1CNC[C@@H]1CCC(=O)N1 [Compound 2.001] | dose dependently increase | promote killing | strongly induced the dimerization signal; also recorded: induce PD-L1 dimerization | profoundly reduces surface PD-L1 levels; also recorded: lower the surface PD-L1 levels |  |  | 4 animals | increased |
| < 10 nM |  |  |  |  |  |  | COc1nc(-c2cccc(-c3cccc(NC(=O)c4cn(C)c(=O)n(C)c4=O)c3C)c2Cl)ccc1CN[C@@H]1CCOC[C@@H]1O [Compound 2.003] |  |  |  |  |  |  |  |  |
|  |  |  |  |  |  | do not induce such signal | Durvalumab [reference compound] |  |  |  | no effect |  |  | 6 animals |  |
